#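 How tested: cells in 96-well plates exposed to compound for 48 hours at five concentrations. The concentration for 50% growth inhibition is given as GI50. TGI is the concentration that stops growth completely.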
# Tests used:
# Assay in all cases: DTP human tumour cell line panel, 48 h
# ACHN renal = test system: ACHN renal
# SK-OV-3 ovarian = test system: SK-OV-3 ovarian
# SR leukemia = test system: SR leukemia
# OVCAR-8 ovarian = test system: OVCAR-8 ovarian
# MCF7 breast = test system: MCF7 breast
# HOP-92 NSCLC = test system: HOP-92 NSCLC
# SK-MEL-5 melanoma = test system: SK-MEL-5 melanoma
# OVCAR-4 ovarian = test system: OVCAR-4 ovarian
# HCT-116 colon = test system: HCT-116 colon
# HS 578T breast = test system: HS 578T breast
SMILES,TGI (ACHN renal),TGI (SK-OV-3 ovarian),TGI (SR leukemia),TGI (OVCAR-8 ovarian),TGI (MCF7 breast),TGI (HOP-92 NSCLC),TGI (SK-MEL-5 melanoma),TGI (OVCAR-4 ovarian),TGI (HCT-116 colon),TGI (HS 578T breast),GI50 (ACHN renal),GI50 (SK-OV-3 ovarian),GI50 (OVCAR-8 ovarian),GI50 (MCF7 breast),GI50 (HOP-92 NSCLC),GI50 (HS 578T breast),GI50 (SK-MEL-5 melanoma),GI50 (OVCAR-4 ovarian),GI50 (HCT-116 colon),GI50 (SR leukemia)
COC(=O)C1(Cc2cccc(Cl)c2)CCCCCCN1C(=O)c1ccccc1 (configuration not stated),30 µM,42.8 µM,39.8 µM,33.4 µM,26.6 µM,35.6 µM,26.6 µM,50.6 µM,29.7 µM,–,–,–,–,–,–,–,–,–,–,–
O=[As](O)(O)c1ccc(Cc2ccc([As](=O)(O)O)cc2)cc1,2.31 µM,6.19 µM,–,1.35 µM,1.19 µM,2.92 µM,1.89 µM,7.47 µM,2.13 µM,12.4 µM,–,–,–,–,–,–,–,–,–,–
O=C1C2=C(c3ccccc31)C(c1ccccc1Cl)N1C(=O)CSC1=N2 (configuration not stated),> 100 µM,> 100 µM,–,> 100 µM,–,> 100 µM,> 100 µM,> 100 µM,> 100 µM,–,–,–,–,–,–,–,–,–,–,–
COC1=C(OC)CCC(/C(C#N)=C/c2ccc(OC)c(OC)c2)=C1,> 100 µM,91.3 µM,> 100 µM,> 100 µM,–,> 100 µM,> 100 µM,> 100 µM,> 100 µM,–,–,–,–,–,–,–,–,–,–,–
CCNCC(O)c1ccc(N)c([N+](=O)[O-])c1 (configuration not stated),> 100 µM,> 100 µM,> 100 µM,> 100 µM,> 100 µM,–,> 100 µM,> 100 µM,> 100 µM,> 100 µM,–,–,–,–,–,–,–,–,–,–
O=Cc1coc2ccccc2c1=O,45.2 µM,50.9 µM,–,35.3 µM,45.7 µM,–,39 µM,43.8 µM,32 µM,53.4 µM,–,–,–,–,–,–,–,–,–,–
O=c1nc2cc(-c3ccccc3)[nH]c2nn1-c1c(Cl)cc(Cl)cc1Cl,–,92.4 µM,62.5 µM,95.8 µM,–,64 µM,56.4 µM,–,40.1 µM,–,–,–,–,–,–,–,–,–,–,–
CCOC(=O)C(C)(C)Oc1ccc2c(-c3ccc(Cl)cc3)cc(=O)oc2c1,> 100 µM,–,> 100 µM,> 100 µM,–,–,> 100 µM,> 100 µM,> 100 µM,–,–,–,–,–,–,–,–,–,–,–
CCNCCNc1cc(-c2ccc(F)cc2)c(C#N)c2nc3ccccc3n12,3.51 µM,26.4 µM,–,15.8 µM,13.5 µM,8.12 µM,3.18 µM,14.5 µM,4.34 µM,12.5 µM,1.87 µM,13.5 µM,4.52 µM,3.31 µM,2.82 µM,3.15 µM,1.74 µM,3.4 µM,2.24 µM,–
CCC1(OC(C)=O)C(=O)OCc2c1cc1n(c2=O)Cc2cc3ccccc3nc2-1 (configuration not stated),12.1 µM,> 69.6 µM,11.9 µM,> 100 µM,–,> 100 µM,4 µM,> 100 µM,> 37.5 µM,–,–,–,–,–,–,–,–,–,–,–
COc1ccc(NC(=O)C(=O)C2NC(=S)NC2=O)c(OC)c1 (configuration not stated),> 100 µM,> 100 µM,–,> 100 µM,–,> 100 µM,–,> 100 µM,> 100 µM,–,–,–,–,–,–,–,–,–,–,–
CCCC[C@@H](COC(=O)N(Cc1cccs1)Cc1cccs1)NC(=O)N[C@@H](CC(=O)OC)c1ccc2c(c1)OCO2,> 100 µM,> 100 µM,–,> 100 µM,> 100 µM,> 100 µM,> 100 µM,> 100 µM,> 100 µM,> 100 µM,> 100 µM,> 100 µM,> 100 µM,> 100 µM,> 100 µM,> 100 µM,> 100 µM,> 100 µM,> 100 µM,–
CCc1cccc(C)c1NC(=O)NS(=O)(=O)c1ccc(C)cc1,> 100 µM,> 100 µM,–,> 100 µM,–,> 100 µM,> 100 µM,> 100 µM,> 100 µM,–,–,–,–,–,–,–,–,–,–,–
O=[N+]([O-])c1ccccc1C1N2CCCCC2[C@@H]2c3[nH]c4ccccc4c3CCN12 (some centres not stated),31.3 µM,54.3 µM,–,39.1 µM,–,29.2 µM,26.2 µM,32.3 µM,–,–,–,–,–,–,–,–,–,–,–,–
CC(=O)Nc1ccc(-c2nnc(SCC(=O)Nc3ccc(C)cc3)o2)cc1,70.3 µM,> 100 µM,98.2 µM,70.8 µM,–,33.4 µM,27.8 µM,32.6 µM,29.1 µM,–,–,–,–,–,–,–,–,–,–,–
C/C(=N\Nc1ccc([N+](=O)[O-])cc1)C(=O)N(C)Nc1ccccc1,> 100 µM,> 100 µM,> 100 µM,> 100 µM,–,> 100 µM,–,> 100 µM,–,–,–,–,–,–,–,–,–,–,–,–
Cc1cc(C)nc(NS(=O)(=O)c2ccc(NC(=O)c3cccc4cc5ccccc5nc34)cc2)n1,> 100 µM,> 100 µM,–,> 100 µM,–,–,> 100 µM,> 100 µM,32.1 µM,–,–,–,–,–,–,–,–,–,–,–
COc1ccc(C2S/C(=C\c3ccc(OC)cc3OC)C(=O)N2NC(=O)Cc2ccccc2)cc1 (configuration not stated),> 100 µM,> 100 µM,> 100 µM,> 100 µM,–,> 100 µM,> 100 µM,> 100 µM,> 100 µM,–,–,–,–,–,–,–,–,–,–,–
CCN(CC)CCCNC(=O)Cc1ccccc1Nc1c(Cl)cccc1Cl,20.8 µM,29.1 µM,26 µM,31.9 µM,–,–,14.1 µM,33.1 µM,27.2 µM,–,–,–,–,–,–,–,–,–,–,–
CC1(C)OCN(c2ccc(Cl)cc2)Cn2c1nc1ccccc12,> 100 µM,> 100 µM,98.6 µM,> 100 µM,> 100 µM,> 100 µM,5.39 µM,> 100 µM,> 100 µM,–,–,–,–,–,–,–,–,–,–,–
Cc1ccc(Nc2ccc(Nc3ccc(C)cc3)c3c2C(=O)c2c(O)ccc(O)c2C3=O)cc1,> 100 µM,> 100 µM,–,> 100 µM,–,> 100 µM,> 100 µM,> 100 µM,> 100 µM,–,–,–,–,–,–,–,–,–,–,–
CC[C@@H]1OC2(C)CC(S(=O)(=O)c3ccccc3)CC1O2 (some centres not stated),> 100 µM,> 100 µM,> 100 µM,> 100 µM,–,> 100 µM,> 100 µM,> 100 µM,> 100 µM,–,–,–,–,–,–,–,–,–,–,–
Fc1ccccc1C1CC(C(c2ccccc2)c2ccccc2)=Nc2ccccc2S1 (configuration not stated),43.6 µM,68.6 µM,–,48.5 µM,–,–,24.9 µM,32.9 µM,–,–,–,–,–,–,–,–,–,–,–,–
FC(F)(F)c1ccc(-c2cnc(Br)nc2NC2CCCCCC2)cc1,> 100 µM,> 100 µM,> 100 µM,> 100 µM,> 100 µM,–,> 100 µM,> 100 µM,> 100 µM,> 100 µM,> 100 µM,> 100 µM,> 100 µM,19.7 µM,–,> 100 µM,29.1 µM,26 µM,14.4 µM,30.5 µM
